Assay results taken from PubChem BioAssay AID2060348 (Molecular Pharmacology Branch, DTP, NCI, 2025).
“And” between values parts separate entries of the source, which are not always exact repeats. Equal entries are not always repeated.

System: 885724-159-R-J1-PDC spheroids viability
Experiment: Anticancer human tumor 885724-159-R-J1-PDC patient-derived pancreatic adenocarcinoma cell line growth inhibition [TAK]
Settings: spheroids with HUVEC and MSC; for viability, T/C: stronger effect = lower value; for IC50: curve of compound
Text: Combinatorial screen of targeted agents with TAK-243 and ipatasertib in multi-cell type tumor spheroids
A high-throughput screen of multi-cell type tumor spheroids was designed to identify active combinations of targeted small molecules and TAK-243 or ipatasertib. Complex spheroids include a stromal component modeled by human endothelial cells (HUVEC) and fibroblasts modeled by human mesenchymal stem cells (MSCs). The concentration ranges selected for each drug and investigational agent were based upon clinically achievable concentrations if the clinical Cmax of the agent was known.
Compounds. The drugs and investigational agents: TAK-243 (785004), ipatasertib (767898), everolimus (733504), selumetinib (741078), bortezomib (756655), trametinib (758246), ixazomib (758254), vemurafenib (761431), dabrafenib (764134), sapanisertib (764658), alpelisib (765974), and copanlisib (816437), were obtained from the National Cancer Institute (NCI) Developmental Therapeutics Program Chemical Repository. The FDA-approved anticancer drug set is available from the NCI Developmental Therapeutics Program. […] The stock solutions were prepared in dimethyl sulfoxide (DMSO, Sigma-Aldrich, St. Louis, MO, cat. D2650) at 800-fold the tested concentration and stored at -70 degrees C prior to their use. All drugs and investigational agents were tested over a range starting from a high concentration at or near the clinical Cmax and decreasing in half-log increments. If the clinical Cmax for an agent had not been determined, the highest concentration tested was 10 microM.
NCI60 Cell Culture. NCI60 cell lines were obtained from the NCI Developmental Therapeutics Program Tumor Repository. For each lot of cells, the Repository performed Applied Biosystems AmpFLSTR Identifiler testing with PCR amplification to confirm consistency with the published Identifier STR profile for each cell line. Cells were kept in continuous culture for no more than 20 passages. The optimal seeding densities for each of the cell lines at each time point assessed were determined prior to performing the concentration response studies. Briefly, the NCI60 human tumor lines were grown as monolayers in RPMI 1640 medium supplemented with 10% FBS and 2 mmol/L L-glutamine.
An additional 2 lines were from the NCI60 cell line panel including melanomas, MALME-3M and SK-MEL-2. Pooled donor human umbilical vein endothelial cells (HUVEC, Lonza, cat. CC-2519) and human mesenchymal stem cells (hMSC, Lonza, cat. PT-2501) were purchased from Lonza (Walkersville, MD).
PDMR cell lines were grown in complete medium (DC medium): Dulbecco's modified Eagle's medium (DMEM)/F12 supplemented with 5% fetal bovine serum (FBS), 2 mM L-glutamine, 100 U/mL penicillin and 100 µg/ml streptomycin, 0.4 µg/ml hydrocortisone, 10 ng/ml epidermal growth factor (EGF) recombinant human protein, 24 µg/mL adenine, and 0.1 mg/mL primocin. During culture from frozen stock vials, PDMR cells were cultured in the same medium containing 10 µM Y-27632 (see Table 3). The PDCs were cultured in complete DMEM/F12 media without 10 microM Y-27632 dihydrochloride for at least two passages prior to the screen. The pooled donor HUVEC and hMSC were cultured in endothelial cell growth medium 2 (PromoCell, Heidelberg, Germany, cat. C-22011) and mesenchymal stem cell growth medium 2 (PromoCell, cat. C-28009), respectively. For all experiments, HUVEC and hMSC were used at passages </=5.
For the pre-screen, cell seeding densities were determined from a titration spanning the range from 5,000 to 313 cells per well. The mct-spheroids including 60% malignant cells, 25% HUVEC and 15% MSC dispensed as a mixture into U-bottom Ultra-Low Attachment 384-well plates (Corning, NY)
High-throughput Drug Combination Screening.
Prior to their inoculation into 384-well plates, malignant cells, HUVEC, and hMSC were removed from T flasks using TrypLE express (Thermo Fisher Scientific, cat. 12605036) and harvested by centrifugation for 5 min at 233 x g. […]
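Note: spheroids exposed to drugs for seven days.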
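Throughout, for viability, T/C: 100% = DMSO vehicle control viability.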

| SMILES | IC50 | viability, T/C (compound 0.0316 µM) | viability, T/C (compound 0.1 µM) | viability, T/C (compound 0.316 µM) | viability, T/C (compound 1 µM) | viability, T/C (compound 0.000316 µM) | viability, T/C (compound 0.001 µM) | viability, T/C (compound 0.00316 µM) | viability, T/C (compound 0.01 µM) | further results |
| --- | --- | --- | --- | --- | --- | --- | --- | --- | --- | --- |
| CC(=O)Nc1cccc(-n2c(=O)n(C3CC3)c(=O)c3c(Nc4ccc(I)cc4F)n(C)c(=O)c(C)c32)c1 | 1.38 nM and 1.18 nM |  |  |  |  |  |  |  |  | viability, T/C (compound 94.9 pM): 89.3% and 117%; viability, T/C (compound 0.0003 µM): 86.7% and 71.2%; viability, T/C (compound 0.000949 µM): 53.9% and 55.8%; viability, T/C (compound 0.003 µM): 37.1% and 40.6%; viability, T/C (compound 0.00949 µM): 26.4% and 30.2%; viability, T/C (compound 0.03 µM): 20.4% |
| CC(C)(C)c1nc(-c2cccc(NS(=O)(=O)c3c(F)cccc3F)c2F)c(-c2ccnc(N)n2)s1 | > 10000 nM | 179% and 172% | 262% and 233% | 321% and 254% | 332% and 269% |  |  |  |  | viability, T/C (compound 3.16 µM): 308% and 241%; viability, T/C (compound 10 µM): 200% and 176% |
| CC(C)CC(NC(=O)C(Cc1ccccc1)NC(=O)c1cnccn1)B(O)O (stereo not given) | 4.63 nM and 4.18 nM |  |  |  |  | 104% and 93.8% | 99.3% and 87.3% | 74.5% and 67.2% | 1.18% and 1.87% | viability, T/C (compound 31.6 pM): 114% and 102%; viability, T/C (compound 0.0001 µM): 105% and 100% |
| CC(C)CC(NC(=O)CNC(=O)c1cc(Cl)ccc1Cl)B1OC(=O)CC(CC(=O)O)(C(=O)O)O1 (stereo not given) | 19.1 nM and 18.8 nM | 19.3% and 15.8% | 1.47% and 1.1% |  |  | 98.6% and 104% | 101% and 96.8% | 99.5% and 103% | 89.3% and 91.4% |  |
| CC(C)NCC(C(=O)N1CCN(c2ncnc3c2C(C)CC3O)CC1)c1ccc(Cl)cc1 (stereo not given) |  |  |  |  |  |  |  |  |  | viability, T/C (compound 0.3 µM): 64.1% [middle of 10 runs]; viability, T/C (compound 0.949 µM): 60.5% [middle of 10 runs]; viability, T/C (compound 3 µM): 55.2% [middle of 10 runs]; viability, T/C (compound 9.49 µM): 47.5% [middle of 10 runs]; viability, T/C (compound 30 µM): 32.8% [middle of 10 runs] |
| CC(C)n1nc(-c2ccc3oc(N)nc3c2)c2c(N)ncnc21 | 52.6 nM and 52.9 nM | 54.2% and 51.1% | 46.1% and 46% |  |  | 104% and 108% | 103% and 95.1% | 93.3% and 83.8% | 67.5% and 70.2% |  |
| CCCS(=O)(=O)Nc1ccc(F)c(C(=O)c2c[nH]c3ncc(-c4ccc(Cl)cc4)cc23)c1F | > 100000 nM |  |  | 145% and 137% | 179% and 154% |  |  |  |  | viability, T/C (compound 3.16 µM): 187% and 177%; viability, T/C (compound 10 µM): 96.5% and 86.4%; viability, T/C (compound 31.6 µM): 159% and 132%; viability, T/C (compound 100 µM): 150% and 129% |
| COC1CC2CCC(C)C(O)(O2)C(=O)C(=O)N2CCCCC2C(=O)OC(C(C)CC2CCC(OCCO)C(OC)C2)CC(=O)C(C)C=C(C)C(O)C(OC)C(=O)C(C)CC(C)C=CC=CC=C1C (stereo not given) | > 100 nM | 70.2% and 70.8% | 67.6% and 62.2% |  |  | 93.8% and 110% | 91.7% and 92% | 79.7% and 77% | 69.8% and 72.2% |  |
| COc1c(OCCCN2CCOCC2)ccc2c3n(c(=NC(=O)c4cnc(N)nc4)nc12)CCN3 | 26.7 nM and 23.3 nM | 47.1% and 47.6% | 27.9% and 22.6% | 14% and 13.8% | 12.1% and 12% |  |  | 92.1% and 84.8% | 69.9% and 64.1% |  |
| Cc1nc(NC(=O)N2CCCC2C(N)=O)sc1-c1ccnc(C(C)(C)C(F)(F)F)c1 (stereo not given) | 1590 nM and 1990 nM | 100% and 108% | 91.1% and 88.8% | 72.9% and 70.5% | 55.2% and 64.1% |  |  |  |  | viability, T/C (compound 3.16 µM): 42.3% and 43.4%; viability, T/C (compound 10 µM): 26.8% and 29.2% |
| Cn1cnc2c(F)c(Nc3ccc(Br)cc3Cl)c(C(=O)NOCCO)cc21 | 40.9 nM |  |  |  |  |  |  |  |  | viability, T/C (compound 0.00949 µM): 70.7% and 70.3%; viability, T/C (compound 0.03 µM): 53.1% and 54.5%; viability, T/C (compound 0.0949 µM): 38.9% and 38.3%; viability, T/C (compound 0.3 µM): 34.6% and 32.9%; viability, T/C (compound 0.949 µM): 28.6% and 27.2%; viability, T/C (compound 3 µM): 21.2% and 21.8% |
